pIC50: −log10 of the molar value. Structures can show the parent of a compound that is named as a salt.

For the first test, the system named is Plasmodium falciparum: 3D7 strain. As to the kind of experiment: P. falciparum 3D7 asexual blood stage assay (SYBR green readout). Particulars: Plasmodium falciparum, 3D7, Erythrocyte, 72 h, P. falciparum 3D7 in human erythrocytes, 72 h incubation, SYBR green fluorescence. It is filed as cell-based. Put shortly:
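3D7-infected erythrocytes (5% haematocrit, 0.5% parasitaemia) were exposed 72 h at 37 °C under 1% O2/3% CO2 to a 20-point titration (50,000-15 nM final, 0.5% DMSO). Parasite DNA was read by SYBR green fluorescence after overnight lysis. Percent inhibition was set against mefloquine and DMSO, and EC50 came from a biphasic two-site fit.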
`C[C@H]1C[C@@H](N2C(=N)N[C@](C)(c3cccc(-c4cc5cccnc5n4C)c3Cl)CC2=O)CCO1` [Example 30, (6S)-6-[2-Chloro-3-(1-methyl-pyrrolo[2,3-b]pyridin-2-yl)phenyl]-2-imino-6-methyl-3-[(2S,4S)-2-methyltetrahydropyran-4-yl]-hexahydropyrimidin-4-one trifluoroacetic acid salt]: the pIC50 is 6.70.

Turning to `C[C@H]1C[C@@H](N2C(=N)N[C@](C)(c3cccc(-c4cccc(Cl)c4)c3Cl)CC2=O)CC[C@@H]1O` (relative stereo) [Example 105, (6S)-6-[2-Chloro-3-(3-chloro-phenyl)phenyl]-3-[(1R*,3R*,4R*)-4-hydroxy-3-methylcyclohexyl]-2-imino-6-methylhexahydro-pyrimidin-4-one hydrochloride], the pIC50 is 5.81.

`C[C@@]1(c2cccc(-c3ccc(F)cc3F)c2Cl)CC(=O)N([C@@H]2CCC(F)(F)[C@H](O)C2)C(=N)N1` (relative stereo) [Example 97, (6S)-6-[2-Chloro-3-(2,4-difluoro-phenyl)phenyl]-3-[(1R*,3R*)-4,4-difluoro-3-hydroxycyclohexyl]-2-imino-6-methylhexahydro-pyrimidin-4-one hydrochloride] had a pIC50 of 6.55. The compound `C[C@H]1C[C@@H](N2C(=N)N[C@](C)(c3cccc(-c4cccc(P(C)(C)=O)c4)c3Cl)CC2=O)CCO1` [Example 5, (6S)-6-[2-Chloro-3-(3-dimethyl-phosphorylphenyl)phenyl]-2-imino-6-methyl-3-[(2S,4S)-2-methyl-tetrahydropyran-4-yl]hexahydro-pyrimidin-4-one hydrochloride] showed a pIC50 of 7.00. The same measure, in the same setting: as for `C[C@H]1C[C@H](N2C(=N)N[C@](C)(c3cccc(-c4ccc(OC(F)(F)F)nc4)c3Cl)CC2=O)CCS1(=O)=O` (relative stereo) [Example 80, (6S)-6-{2-Chloro-3-[6-(trifluoro-methoxy)pyridin-3-yl]phenyl}-2-imino-6-methyl-3-[(2S*,4R*)-2-methyl-1,1-dioxothian-4-yl]-hexahydropyrimidin-4-one hydrochloride], the figure is 5.77. Same read-out and setting: as for `C[C@H]1C[C@@H](N2C(=N)N[C@](C)(c3cccc(-c4cn(CCN(C)C)nn4)c3Cl)CC2=O)CCO1` [Example 114, (6S)-6-(2-Chloro-3-{1-[2-(dimethylamino)ethyl]-1,2,3-triazol-4-yl}phenyl)-2-imino-6-methyl-3-[(2S,4S)-2-methyl-tetrahydropyran-4-yl]hexahydro-pyrimidin-4-one trifluoroacetic acid salt], the figure is 6.03; as for `C[C@H]1C[C@@H](N2C(=N)N[C@](C)(c3cccc(-c4cn(C5CCC5)nn4)c3Cl)CC2=O)CCO1` [Example 122, (6S)-6-[2-Chloro-3-(1-cyclobutyl-1,2,3-triazol-4-yl)phenyl]-2-imino-6-methyl-3-[(2S,4S)-2-methyl-tetrahydropyran-4-yl]hexahydro-pyrimidin-4-one trifluoroacetic acid salt], 7.00. On the same count and under the same terms, as for `C[C@H]1C[C@@H](N2C(=N)N[C@](C)(c3cccc(-c4cncc(Cl)c4)c3Cl)CC2=O)CCO1` [Example 1, (6S)-6-[2-Chloro-3-(5-chloro-pyridin-3-yl)phenyl]-2-imino-6-methyl-3-[(2S,4S)-2-methyl-tetrahydropyran-4-yl]hexahydro-pyrimidin-4-one hydrochloride], the figure is 7.66; as for `C[C@H]1C[C@@H](N2C(=N)N[C@](C)(c3cccc(-c4ccc(C5CC5)nc4)c3Cl)CC2=O)CCS1(=O)=O` (relative stereo) [Example 67, (6S)-6-[2-Chloro-3-(6-cyclopropyl-pyridin-3-yl)phenyl]-2-imino-6-methyl-3-[(2S*,4S*)-2-methyl-1,1-dioxothian-4-yl]hexahydro-pyrimidin-4-one hydrochloride], 7.06. As for `C[C@H]1C[C@@H](N2C(=N)N[C@](C)(c3cccc(-c4ccc(Cl)cc4F)c3Cl)CC2=O)CCO1` [Example 15, (6S)-6-[2-Chloro-3-(4-chloro-2-fluorophenyl)phenyl]-2-imino-6-methyl-3-[(2S,4S)-2-methyl-tetrahydropyran-4-yl]hexahydro-pyrimidin-4-one trifluoroacetic acid salt], the pIC50 is 6.85.

`C[C@H]1C[C@@H](N2C(=N)N[C@](C)(c3cccc(-c4ccc(OC(F)F)nc4)c3Cl)CC2=O)CCS1(=O)=O` (relative stereo) [Example 71, (6S)-6-{2-Chloro-3-[6-(difluoro-methoxy)pyridin-3-yl]phenyl}-2-imino-6-methyl-3-[(2S*,4S*)-2-methyl-1,1-dioxothian-4-yl]-hexahydropyrimidin-4-one hydrochloride]: the pIC50 is 6.82. The compound `C[C@H]1C[C@@H](N2C(=N)N[C@](C)(c3cccc(-c4cccc(Cl)c4)c3Cl)CC2=O)CC[C@H]1O` (relative stereo) [Example 8, (6S)-6-[2-Chloro-3-(3-chloro-phenyl)phenyl]-3-[(1S*,3S*,4R*)-4-hydroxy-3-methylcyclohexyl]-2-imino-6-methylhexahydro-pyrimidin-4-one hydrochloride] had a pIC50 of 6.61. The compound `C[C@@]1(c2cccc(-c3ccc(C4CC4)nc3)c2Cl)CC(=O)N([C@@H]2CCC(F)(F)[C@H](O)C2)C(=N)N1` (relative stereo) [Example 98, (6S)-6-[2-Chloro-3-(6-cyclopropyl-pyridin-3-yl)phenyl]-3-[(1R*,3R*)-4,4-difluoro-3-hydroxycyclohexyl]-2-imino-6-methylhexahydro-pyrimidin-4-one hydrochloride] had a pIC50 of 6.53.

`C[C@@H]1C[C@H](N2C(=N)N[C@](C)(c3cccc(-c4ccc(F)cc4F)c3Cl)CC2=O)CCS1(=O)=O` (relative stereo) [Example 63, (6S)-6-[2-Chloro-3-(2,4-difluoro-phenyl)phenyl]-2-imino-6-methyl-3-[(2R*,4R*)-2-methyl-1,1-dioxo-thian-4-yl]hexahydropyrimidin-4-one hydrochloride] gave a pIC50 of 7.13. The same measure, in the same setting: as for `C[C@H]1C[C@H](N2C(=N)N[C@](C)(c3cccc(-c4ccc(C5CC5)nc4)c3Cl)CC2=O)CCS1(=O)=O` (relative stereo) [Example 69, (6S)-6-[2-Chloro-3-(6-cyclopropyl-pyridin-3-yl)phenyl]-2-imino-6-methyl-3-[(2S*,4R*)-2-methyl-1,1-dioxothian-4-yl]hexahydro-pyrimidin-4-one hydrochloride], the figure is 6.59; as for `C[C@H]1C[C@@H](N2C(=N)N[C@](C)(c3cccc(-c4cn(C5CCCNCC5)nn4)c3Cl)CC2=O)CCO1` (stereo partly drawn) [Example 129, (6S)-6-{3-[1-(Azepan-4-yl)-1,2,3-triazol-4-yl]-2-chlorophenyl}-2-imino-6-methyl-3-[(2S,4S)-2-methyltetrahydropyran-4-yl]-hexahydropyrimidin-4-one trifluoroacetic acid salt], 4.92; as for `C[C@H]1C[C@@H](N2C(=N)N[C@](C)(c3cccc(-c4cccc(N=S(C)(C)=O)c4)c3Cl)CC2=O)CCC1(F)F` [Example 20, (6S)-6-[2-Chloro-3-(3-{[(dimethyl)-(oxo)-λ^6-sulfanylidene]amino}-phenyl)phenyl]-3-[(1S,3S)-4,4-difluoro-3-methylcyclohexyl]-2-imino-6-methylhexahydro-pyrimidin-4-one hydrochloride], 7.06. The same measure, in the same setting: as for `Cc1cc(-c2cccc([C@]3(C)CC(=O)N([C@H]4CCO[C@@H](C)C4)C(=N)N3)c2Cl)on1` [Example 32, (6S)-6-[2-Chloro-3-(3-methyl-isoxazol-5-yl)phenyl]-2-imino-6-methyl-3-[(2S,4S)-2-methyl-tetrahydropyran-4-yl]hexahydro-pyrimidin-4-one trifluoroacetic acid salt], the figure is 7.30; as for `CO[C@@H]1C[C@H](N2C(=N)N[C@](C)(c3cccc(-c4ccc(S(C)(=O)=O)cc4F)c3Cl)CC2=O)CCC1(F)F` (relative stereo) [Example 9, (6S)-6-{2-Chloro-3-[2-fluoro-4-(methylsulfonyl)phenyl]phenyl}-3-[(1R*,3R*)-4,4-difluoro-3-methoxycyclohexyl]-2-imino-6-methylhexahydropyrimidin-4-one hydrochloride], 7.08; as for `C[C@@]1(c2cccc(-c3cncc(Cl)c3)c2Cl)CC(=O)N([C@@H]2CCC(F)(F)[C@H](O)C2)C(=N)N1` (relative stereo) [Example 23, (6S)-6-[2-Chloro-3-(5-chloro-pyridin-3-yl)phenyl]-3-[(1R*,3R*)-4,4-difluoro-3-hydroxycyclohexyl]-2-imino-6-methylhexahydro-pyrimidin-4-one hydrochloride], 6.80. Still for that read-out and setting: next, `C[C@@H]1C[C@@H](N2C(=N)N[C@](C)(c3cccc(-c4ccc(C5CC5)nc4)c3Cl)CC2=O)CCS1(=O)=O` (relative stereo) [Example 68, (6S)-6-[2-Chloro-3-(6-cyclopropyl-pyridin-3-yl)phenyl]-2-imino-6-methyl-3-[(2R*,4S*)-2-methyl-1,1-dioxothian-4-yl]hexahydro-pyrimidin-4-one hydrochloride]: 5.95; `C[C@H]1C[C@@H](N2C(=N)N[C@](C)(c3cccc(-c4ccc(F)cc4F)c3Cl)CC2=O)CCS1(=O)=O` (relative stereo) [Example 64, (6S)-6-[2-Chloro-3-(2,4-difluoro-phenyl)phenyl]-2-imino-6-methyl-3-[(2S*,4S*)-2-methyl-1,1-dioxo-thian-4-yl]hexahydropyrimidin-4-one hydrochloride]: 6.68.

The same test, now with this note: Plasmodium falciparum, Erythrocyte; P. falciparum 3D7 in human erythrocytes, 72 h incubation, SYBR green fluorescence; read-out: IC50.
Turning to `CN1CCC(N2C(=N)N[C@](C)(c3cccc(-c4cc(Cl)ccc4Cl)c3Cl)CC2=O)CC1` [Example 92, (6S)-6-[2-Chloro-3-(2,5-dichloro-phenyl)phenyl]-2-imino-6-methyl-3-(1-methylpiperidin-4-yl)-hexahydropyrimidin-4-one], the pIC50 is 7.30.

A word on the pIC50: it is −log10 of the IC50, conventionally taken in molar units.
